The text below walks through data of ChEMBL document CHEMBL1201862, “PubChem BioAssay data set” (2004).

Test systems include SF-539; SF-268; SR; HCT-15; T47D; NCI-H460; SK-OV-3; HOP-62; OVCAR-4; OVCAR-8; RPMI-8226; IGROV-1; CCRF-CEM; A549; NCI-H23; HCC 2998; SNB-75; HOP-92.
What all share (assay): growth of human tumour cells (NCI), 48 h

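How tested: cells in 96-well plates exposed to compound for 48 hours at five concentrations. GI50: concentration for 50% inhibition of growth.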 Activity calls are given as the source filed them. No stated cut-off is given here; in the data, active = GI50 up to about 1.1 µM and inactive = higher.

Consider `COC(=O)[C@@H]1C[C@H]2OC(=O)CC[C@]2(C)O[C@H]1[C@H]1O[C@@](C)(O)CCC[C@H]1C`, for which the GI50 in the assay with SF-539 is > 50 µM (inactive); in the assay on SF-268, > 50 µM (inactive); with SR, > 50 µM (inactive); in the assay on HCT-15, more than 50 µM; with T47D, > 50 µM (inactive); in the assay with NCI-H460, > 50 µM (inactive). Further, the GI50 in the assay on SK-OV-3, in the assay on HOP-62, in the assay on OVCAR-4, in the assay with OVCAR-8, with RPMI-8226 and in the assay on IGROV-1 was > 50 µM (inactive) each time. Also, the GI50 was 14.5 µM (inactive) in the assay with CCRF-CEM, > 50 µM (inactive) with A549, > 50 µM (inactive) in the assay with NCI-H23 and > 50 µM (inactive) in the assay on HCC 2998.

For the compound `CC1(c2ccccc2)CCN(C2CC2)CO1` (stereo not drawn), the GI50 in the assay with SF-268 is 16.8 µM (inactive); in the assay on SNB-75 it was 64.9 µM (inactive); in the assay on SR, 25.5 µM (inactive); in the assay on HCT-15, 16.5 µM; in the assay on T47D, 17.3 µM (inactive); in the assay on NCI-H460, 14.9 µM (inactive). The GI50 is > 100 µM (inactive) in the assay on SK-OV-3; > 100 µM (inactive) in the assay on HOP-62; 18.8 µM (inactive) with OVCAR-4; 68.1 µM (inactive) with OVCAR-8; 19.8 µM (inactive) in the assay on RPMI-8226; 19.6 µM (inactive) in the assay with IGROV-1. Besides, the GI50 in the assay with CCRF-CEM is 32.4 µM (inactive); with A549, > 100 µM (inactive); with NCI-H23, 33 µM (inactive); in the assay on HCC 2998, 17.1 µM (inactive).

`CCNC1=C(NC(=O)CCl)C(=O)c2ccccc2C1=O`: the GI50 with SF-539 is 21.7 µM (inactive); in the assay with SF-268 it was 18.1 µM (inactive); in the assay with SNB-75, > 10 µM (inactive); in the assay on SR, 32.8 µM (inactive); in the assay on HCT-15 it was 18.5 µM; in the assay on T47D, 22.3 µM (inactive). Further, the GI50 was 23.7 µM (inactive) in the assay on NCI-H460; > 10 µM (inactive) in the assay on SK-OV-3; 16.5 µM (inactive) with HOP-62; 17 µM (inactive) in the assay with OVCAR-4; 20.1 µM (inactive) in the assay with OVCAR-8; 34 µM (inactive) in the assay on RPMI-8226. Besides, the GI50 with HOP-92 is 21 µM (inactive); with IGROV-1, > 10 µM (inactive); in the assay with CCRF-CEM it was 20 µM (inactive); in the assay with A549, 33.7 µM (inactive); with NCI-H23, 19 µM (inactive); with HCC 2998 it was > 10 µM (inactive).

For `C1CCNCC1.O=C1NC(=S)N/C1=C/c1ccccc1O`, the GI50 in the assay with SF-539 was > 100 µM (inactive); with SF-268, > 100 µM (inactive); with SR, > 100 µM (inactive); with HCT-15, more than 100 µM; in the assay with T47D, 56.2 µM (inactive); in the assay with SK-OV-3, > 100 µM (inactive). The GI50 in the assay on HOP-62 was > 100 µM (inactive); in the assay on OVCAR-4 it was > 100 µM (inactive); in the assay on OVCAR-8, > 100 µM (inactive); in the assay on RPMI-8226, 45.2 µM (inactive); in the assay on HOP-92 it was > 100 µM (inactive); in the assay on IGROV-1, 99.1 µM (inactive). Besides, the GI50 with CCRF-CEM is > 100 µM (inactive); in the assay with A549, > 100 µM (inactive); with NCI-H23, > 100 µM (inactive); with HCC 2998, 23.5 µM (inactive).

Regarding `O=[N+]([O-])c1ccc(/C=N/Nc2nc3ccccc3[nH]2)o1`, the GI50 in the assay with SF-539 is 4.09 µM (inactive); with SF-268, 24.4 µM (inactive); with SNB-75 it was 17.7 µM (inactive); in the assay on SR it was 7.71 µM (inactive); with HCT-15 it was 11.8 µM; with T47D, 13.6 µM (inactive). Also, the GI50 with NCI-H460 was 17.5 µM (inactive); in the assay on SK-OV-3, 33.7 µM (inactive); in the assay on HOP-62, 15.8 µM (inactive); with OVCAR-4, 8.69 µM (inactive); with OVCAR-8 it was 16.7 µM (inactive); in the assay on RPMI-8226 it was 2.85 µM (inactive). Besides, the GI50 with HOP-92 was 17.4 µM (inactive); with IGROV-1, 12.6 µM (inactive); with CCRF-CEM it was 8.39 µM (inactive); in the assay on A549, 12.2 µM (inactive); with NCI-H23, 16.2 µM (inactive).
